The values below come from ChEMBL document CHEMBL1153070, “Urea and carbamate derivatives of primaquine: synthesis, cytostatic and antioxidant activities” (Bioorg Med Chem, 2009).

Assay [1] relates to Radical scavenging activity. Briefly: Antioxidant activity assessed as DPPH radical scavenging activity at 0.1 mM after 60 mins. It counts as functional.
For assay [2], the system named is Glycine max. In words: Inhibition of soybean lipoxygenase.
The test system of assay [3] is Radical scavenging activity. Briefly: Antioxidant activity assessed as DPPH radical scavenging activity at 0.05 mM after 60 mins. It counts as functional. (In general: DPPH is a stable violet radical that fades when it is reduced.)
Assay [4] has as its system HCT-116. In words: Cytostatic activity against human HCT116 cells. The format is functional, cell-based.
Assay [5] deals with NCI-H460. Briefly: Cytostatic activity against human H460 cells. It counts as functional, cell-based.
The test system of assay [6] is MOLT-4. Briefly: Cytostatic activity against human MOLT4 cells. It counts as functional, cell-based.
Assay [7] concerns SW-620. In words: Cytostatic activity against human SW620 cells. It counts as functional, cell-based.
The test system of assay [8] is Radical scavenging activity. In words: Antioxidant activity assessed as DPPH radical scavenging activity at 0.05 mM after 20 mins. The format is functional.
Assay [9] in a line: Antioxidant activity assessed as inhibition of AAPH-induced lipid peroxidation at 0.1 mM. The format is functional.
In assay [10] the test system is Radical scavenging activity. In words: Antioxidant activity assessed as DPPH radical scavenging activity at 0.1 mM after 20 mins. The format is functional.
Assay [11] has as its system Radical scavenging activity. Briefly: Antioxidant activity assessed as DPPH radical scavenging activity. The format is functional.
For assay [12], the system named is MCF7. Briefly: Cytostatic activity against human MCF7 cells. The format is functional, cell-based.
Assay [13] deals with MCF7. Briefly: Antiproliferative activity against human MCF7 cells at 100 uM after 24 hrs. It counts as functional. The conditions noted are these: MCF7, 24 h.

The source made the active and inactive calls. The calls are words filed in the database; no cut-off is given here.

Regarding `COc1cc(N2C(=O)NCCCC2C)c2ncccc2c1` (stereo not given), the Activity in assay [1] is 57.1%; in assay [3], 40%; in assay [8], 30.5%; in [10] it was 48.8%; in assay [11] it was “Dose-dependent effect”. In assay [2], the INH turned out to be 72 µM. Besides, the IC50 (as a rule, the concentration that inhibits the measured activity by half) in assay [4] was over 100 µM; in assay [5], over 100 µM; in [6], at least 100 µM; in assay [7], over 100 µM; in assay [12], over 100 µM. In addition, in [9], the Inhibition (as a rule, the share of the control response that was lost under treatment) worked out at 88%.

In the case of `COc1cc(NC(C)CCCNC(=O)NCCCCCO)c2ncccc2c1` (stereo not given), the values for the Activity in [1], in [10] and in assay [11] were 46.4%, 34.5% and “Dose-dependent effect”, respectively. In [2], this compound registered an INH of 310 µM. The result in assay [3] and in assay [8] was inactive. Further, the IC50 turned out to be 29 µM in [4]; 2 µM in assay [5]; 61 µM in [6]; 0.2 µM in assay [7]; 44 µM in assay [12]. The Inhibition in [9] is 63%.

Turning to `NC(=O)NO` [HYDROXYUREA], the IC50 in [4] is 223 µM; in assay [5], over 100 µM; in [6] it was over 100 µM; in assay [7], over 100 µM; in assay [12], over 100 µM.

For the compound `COc1cc(NC(C)CCCNC(=O)NOCc2ccccc2)c2ncccc2c1` (stereo not given), the Activity in assay [1] is 38.1%; in [10], 11.4%; in assay [11] it was “Dose-dependent effect”. In assay [2], this compound showed an INH of 230 µM. The outcome in [3] and in [8] was inactive. Moreover, the IC50 amounted to 14 µM in assay [4]; 21 µM in [5]; 12 µM in [6]; 20 µM in assay [7]; 9 µM in [12]. Further, in assay [9], the Inhibition worked out at 82%.

As for `COc1cc(NC(C)CCCNC(=O)N(C2CCCCC2)C2CCCCC2)c2ncccc2c1` (stereo not given), the Activity was 42.9% in [1]; 28.8% in assay [3]; 3.9% in assay [8]; 42.9% in assay [10]; “Dose-dependent effect” in assay [11]. The INH in assay [2] is 320 µM. Moreover, the Inhibition in [9] is 96%.

Regarding `COc1cc(NC(C)CCCNC(=O)NCCNC(=O)NCCCC(C)Nc2cc(OC)cc3cccnc23)c2ncccc2c1` (stereo not given), the Activity is 40.5% in assay [1]; 27.6% in assay [3]; 34.2% in assay [8]; 35.7% in assay [10]; “Dose-dependent effect” in assay [11]. In assay [2], this compound registered an INH of 62 µM. Moreover, the IC50 in assay [4] turned out to be 15 µM; in assay [5], 18 µM; in [6], 10 µM; in assay [7], 17 µM; in assay [12] it was 31 µM. Besides, the Inhibition in assay [9] is recorded as 99%.

`O=C(O)/C=C/c1ccc(O)c(O)c1` gave an INH in [2] of 600 µM.

With `COc1cc(NC(C)CCCNC(=O)NO)c2ncccc2c1` (stereo not given), the Activity in [1] was 84.5%; in assay [3], 60.6%; in [8] it was 2.2%; in assay [10] it was 88.1%; in assay [11], “Dose-dependent effect”. Besides, the INH in [2] came out at 83 µM. Also, the IC50 in assay [4] is 57 µM; in [5], over 100 µM; in assay [6], over 100 µM; in [7], 35 µM; in assay [12], 44 µM. In addition, the Inhibition in assay [9] was 69%.

Regarding `COc1cc(NC(C)CCCNC(=O)NC2CCCCC2)c2ncccc2c1` (stereo not given), the Activity in assay [1] was 25%; in assay [3], 16.3%; in assay [8], 28.9%; in assay [10], 27.4%; in [11], “Dose-dependent effect”. Moreover, the inhibition (as a rule, how much of the control response was suppressed) in [2] is “inactive”. The Inhibition in assay [9] was 99%.

As for `COc1cc(NC(C)CCCNC(=O)n2nnc3ccccc32)c2ncccc2c1` (stereo not given) [PRIMAQUINE BENZOTRIAZOLIDE], the Activity in [1] was 73.8%; in assay [3] it was 20%; in assay [8] it was 18.4%; in assay [10], 16.7%; in assay [11], “Dose-dependent effect”. In assay [2], the INH was 260 µM. Besides, the IC50 result in assay [9] was “Not Active”.

On to `COc1cc(NC(C)CCCNC(=O)NCCCO)c2ncccc2c1` (stereo not given), for which the Activity in assay [1] is 33.3%; in assay [3], 27.7%; in assay [8] it was 12.2%; in assay [10], 28.6%; in [11] it was “Dose-dependent effect”. Further, the INH in assay [2] is 230 µM. For the same compound, the IC50 in assay [4] is over 100 µM; in assay [5], over 100 µM; in assay [6], over 100 µM; in assay [7], over 100 µM; in [12], 31 µM. Moreover, in assay [9], the Inhibition amounted to 56%.

Consider `COc1cc(NC(C)CCCNC(=O)NC2CCCC2)c2ncccc2c1` (stereo not given), for which the Activity in assay [1] is 19%; in assay [3], 21.3%; in assay [8] it was 15.8%; in assay [10], 26.2%; in assay [11], “Dose-dependent effect”. The INH in assay [2] was 220 µM. Also, the Inhibition in assay [9] is given as 99%.

As for `COc1cc(NC(C)CCCN)c2ncccc2c1` (stereo not given) [PRIMAQUINE], the Activity in assay [1] was 21.9%; in assay [3], 19%; in assay [8] it was 17.2%; in assay [10] it was 18.1%. This compound had an INH in [2] of 74 µM. Further, the IC50 in assay [4] was 20 µM; in assay [5], 30 µM; in assay [7], at least 100 µM; in [12], 28 µM. The compound further gave an inhibition at 100 µM in [13] of 20%. For the same compound, the Inhibition in assay [9] was determined as 45%.

Take `COc1cc(NC(C)CCCNC(=O)N(CCO)CCO)c2ncccc2c1` (stereo not given): the Activity is 11.9% in assay [1], 7.4% in [3], 20.7% in assay [8] and “Dose-dependent effect” in assay [11]. The same compound showed an INH in [2] of 86 µM. The IC50 is over 100 µM in [4]; over 100 µM in [5]; over 100 µM in assay [6]; over 100 µM in assay [7]; 36 µM in assay [12]. In assay [9], the Inhibition was 85%. Besides, the outcome in assay [10] was inactive.

With `CCOC(=O)NCCCC(C)Nc1cc(OC)cc2cccnc12` (stereo not given), the Activity in assay [1] is 31%; in assay [3], 8.5%; in assay [8], 10.8%; in assay [11] it was “Dose-dependent effect”. Moreover, the inhibition entry in [2] is “inactive”. Moreover, the IC50 in [4] worked out at 28 µM; in assay [5] it was 38 µM; in assay [6], 34 µM; in assay [7] it was 45 µM; in assay [12] it was 26 µM. For the same compound, the Inhibition in [9] was found to be 87%. The outcome in assay [10] was inactive.

In the case of `COc1cc(NC(C)CCCNC(=O)NCCO)c2ncccc2c1` (stereo not given), the Activity in [1] was 51.2%; in assay [3], 10.6%; in assay [8] it was 3.7%; in assay [10], 60.7%; in assay [11], “Dose-dependent effect”. Also, the INH in assay [2] turned out to be 315 µM. Further, the IC50 in assay [4] is over 100 µM; in assay [5], over 100 µM; in assay [6], over 100 µM; in assay [7], over 100 µM; in [12], 25 µM. For the same compound, the Inhibition in [9] is on record as 81%.

With `CC(Cc1ccc(O)c(O)c1)C(C)Cc1ccc(O)c(O)c1` (stereo not given), the Activity in [1] is 83%; in [10], 81%.

Consider `COc1cc(NC(C)CCCNC(=O)NC(CO)(CO)CO)c2ncccc2c1` (stereo not given), for which the Activity was 40.5% in assay [1]; 22.3% in assay [3]; 24.4% in [8]; 28.6% in assay [10]; “Dose-dependent effect” in [11]. Moreover, the inhibition entry in assay [2] was “inactive”. For the same compound, the IC50 in assay [4] was over 100 µM; in [5], over 100 µM; in assay [6], over 100 µM; in assay [7], over 100 µM; in assay [12], 24 µM. In addition, in [9], the Inhibition is 86%.

`COC(=O)NCCCC(C)Nc1cc(OC)cc2cccnc12` (stereo not given): the Activity is 48.8% in assay [1]; 13.8% in assay [3]; 24.4% in assay [8]; 75% in [10]; “Dose-dependent effect” in assay [11]. In assay [2], the inhibition entry is “inactive”. Besides, the IC50 in assay [4], in assay [5], in [6], in [7] and in assay [12] was over 100 µM throughout. The Inhibition in assay [9] was found to be 83%.

Turning to `Cc1c(C)c2c(c(C)c1O)CCC(C)(C(=O)O)O2` (stereo not given) [TROLOX], the Inhibition in assay [9] worked out at 63%.
